# Calls of active or inactive are those of the source. Rule as the data show it, for most assays here: actives have a measured EC50 and inactives only a lower limit.
# Assays:
# [1] = Trypanosoma cruzi growth suppression in host cells – NIH3T3 host cells, beta-gal luminescence, confirmation (AID 2044); format: functional, cell-based;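 also: intracellular parasites grown in NIH/3T3 mouse fibroblasts as host cells; luminescent beta-galactosidase reporter signal from transgenic T. cruzi replicating inside host cells; inhibitors lower the luminescence signal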
# [2] = NIH3T3 cell viability loss – ATP luminescence, mouse fibroblasts, counter-screen, dose response (AID 2010); format: functional, cell-based;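 also: cells exposed to compound for about 90 hours before reading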
# [3] = target: T1, Calpain-2 catalytic subunit (Sus scrofa, UniProt P43367); assay: m-calpain protease blockers, concentration series – biochemical, fluorogenic peptide substrate, dose response (AID 1420); format: functional
# T1 sequence (P43367 whole entry): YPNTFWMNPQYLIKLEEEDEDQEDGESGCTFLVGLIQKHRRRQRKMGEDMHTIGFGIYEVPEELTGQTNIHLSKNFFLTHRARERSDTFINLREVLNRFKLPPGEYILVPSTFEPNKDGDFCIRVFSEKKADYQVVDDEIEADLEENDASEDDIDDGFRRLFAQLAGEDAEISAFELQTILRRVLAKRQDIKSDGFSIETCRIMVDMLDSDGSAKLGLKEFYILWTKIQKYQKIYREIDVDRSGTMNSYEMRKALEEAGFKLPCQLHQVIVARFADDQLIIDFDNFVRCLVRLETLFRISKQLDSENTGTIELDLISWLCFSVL
# [4] = target: T2, Heat shock factor protein 1 (Mus musculus, UniProt P38532); assay: decrease of HSF1-responsive luciferase luminescence – cell-based, NIH3T3, dose retest, confirmation (AID 2382); format: functional;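 also: NIH3T3 fibroblasts with HSF1-driven luciferase reporter stressed by proteasome inhibitor MG132; luminescence from HSF1-driven luciferase expression after 8 hours of MG132 stress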
# T2 sequence (P38532 whole entry): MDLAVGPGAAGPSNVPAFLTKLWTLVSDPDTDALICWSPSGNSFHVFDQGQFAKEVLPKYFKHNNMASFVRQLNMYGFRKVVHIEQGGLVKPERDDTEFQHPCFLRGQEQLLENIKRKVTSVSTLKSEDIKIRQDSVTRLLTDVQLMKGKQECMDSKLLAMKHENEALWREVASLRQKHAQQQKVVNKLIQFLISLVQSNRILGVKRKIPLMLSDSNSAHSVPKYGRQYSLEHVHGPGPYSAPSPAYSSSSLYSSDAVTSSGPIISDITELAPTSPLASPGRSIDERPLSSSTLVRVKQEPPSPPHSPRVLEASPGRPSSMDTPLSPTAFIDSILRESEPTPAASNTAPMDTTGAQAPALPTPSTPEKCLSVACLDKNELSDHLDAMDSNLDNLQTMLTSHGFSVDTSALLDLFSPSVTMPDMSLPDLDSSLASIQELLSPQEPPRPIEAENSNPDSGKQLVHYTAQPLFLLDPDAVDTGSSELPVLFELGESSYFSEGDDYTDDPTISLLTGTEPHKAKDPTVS
# [5] = target: Paired box protein Pax-8 (Homo sapiens, UniProt Q06710); assay: PAX8 transcriptional activity inhibition in RMG-I – RMG-I cells, luciferase, cherry-pick, dose response (AID 687027); format: functional, cell-based;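 also: luciferase reporter driven by Pax8 target thyroperoxidase promoter measured by SteadyGlo luminescence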
# [6] = system: Streptococcus sp. 'group A'; assay: Streptococcus pyogenes SK(-)GAS viability under kanamycin – luminescence, BacTiterGlo, confirmation, counter-screen for streptokinase expression inhibitor project, dose response (AID 1900); format: functional, organism-based
# [7] = target: T3, Streptokinase A (Streptococcus pyogenes serotype M1, UniProt P10520); assay: viability-normalized secreted streptokinase activity reduction – plasminogen activation absorbance, OD405, dose response (AID 1914); format: functional, Streptococcus pyogenes M1 GAS;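 also: secreted streptokinase activity via plasminogen activation per viability signal from cell pellet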
# T3 sequence (P10520 whole entry): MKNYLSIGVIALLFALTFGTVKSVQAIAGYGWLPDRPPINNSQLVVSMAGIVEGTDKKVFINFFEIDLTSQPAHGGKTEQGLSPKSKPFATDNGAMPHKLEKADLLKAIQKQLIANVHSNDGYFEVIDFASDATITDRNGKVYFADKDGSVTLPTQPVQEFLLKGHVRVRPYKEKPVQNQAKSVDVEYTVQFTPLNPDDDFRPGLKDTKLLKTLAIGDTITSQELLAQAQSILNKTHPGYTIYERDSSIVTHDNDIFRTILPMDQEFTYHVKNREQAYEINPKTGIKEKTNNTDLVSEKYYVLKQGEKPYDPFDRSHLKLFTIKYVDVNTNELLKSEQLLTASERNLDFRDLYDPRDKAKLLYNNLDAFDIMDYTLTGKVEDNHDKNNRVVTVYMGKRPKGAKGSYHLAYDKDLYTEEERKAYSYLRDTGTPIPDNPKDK
# [8] = system: Streptococcus; assay: GAS UMAA2166 growth inhibition – luminescence, BacTiterGlo, counter-screen for streptokinase expression inhibitor project, dose response (AID 1915); format: functional, organism-based;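 also: potency for reduction of bacterial viability or growth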
# [9] = target: T4, Protein skinhead-1 (Caenorhabditis elegans, UniProt P34707); format: functional
# T4 sequence (P34707 whole entry): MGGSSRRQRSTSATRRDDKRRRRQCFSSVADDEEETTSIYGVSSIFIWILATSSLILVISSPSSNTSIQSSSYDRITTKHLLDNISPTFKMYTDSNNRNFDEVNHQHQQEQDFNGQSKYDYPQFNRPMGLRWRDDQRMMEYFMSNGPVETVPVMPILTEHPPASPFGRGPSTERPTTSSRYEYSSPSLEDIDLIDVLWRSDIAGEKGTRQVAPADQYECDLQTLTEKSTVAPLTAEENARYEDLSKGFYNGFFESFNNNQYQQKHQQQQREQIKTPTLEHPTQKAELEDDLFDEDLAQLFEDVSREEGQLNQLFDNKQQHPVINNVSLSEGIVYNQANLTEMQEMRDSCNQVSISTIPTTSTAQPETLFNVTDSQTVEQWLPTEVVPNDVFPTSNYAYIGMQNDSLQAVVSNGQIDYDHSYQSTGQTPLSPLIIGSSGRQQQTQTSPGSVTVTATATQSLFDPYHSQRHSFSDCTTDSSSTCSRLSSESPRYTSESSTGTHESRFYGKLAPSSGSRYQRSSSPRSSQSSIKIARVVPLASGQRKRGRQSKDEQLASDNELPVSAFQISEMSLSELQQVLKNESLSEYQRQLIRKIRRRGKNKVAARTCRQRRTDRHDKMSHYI
# [10] = system: H4; assay: Luminescence Cell-Based Dose Response HTS to Identify Activators of 5'UTR Stem-Loop Driven Prion Protein mRNA Translation in H4 Neuroglioblastoma Cells. [Related pubchem assays: 1829 (Project Summary), 1814 (Primary HTS)]; format: functional; settings: Homo sapiens
# [11] = Luminescence Cell-Based Dose Response HTS to Identify Activators of Luciferase Translation or Activity in H4 […] Cells. [Related pubchem assays: 1829 (Project Summary), 1814 (Primary HTS)]; format: functional
# [12] = Luminescence Cell-Based Dose Confirmation HTS to Identify Activators of 5'UTR Stem-Loop Driven Alpha-Synuclein mRNA Translation in H4 Neuroglioblastoma Cells. [Related pubchem assays: 1829 (Project Summary), 1814 (Primary HTS)]; format: functional
# [13] = P. falciparum Dd2 growth inhibitors, dose response, SYBR Green, cherry-picked samples (AID 1159567); format: functional, cell-based
# Chain of Paired box protein Pax-8 (Q06710 whole entry): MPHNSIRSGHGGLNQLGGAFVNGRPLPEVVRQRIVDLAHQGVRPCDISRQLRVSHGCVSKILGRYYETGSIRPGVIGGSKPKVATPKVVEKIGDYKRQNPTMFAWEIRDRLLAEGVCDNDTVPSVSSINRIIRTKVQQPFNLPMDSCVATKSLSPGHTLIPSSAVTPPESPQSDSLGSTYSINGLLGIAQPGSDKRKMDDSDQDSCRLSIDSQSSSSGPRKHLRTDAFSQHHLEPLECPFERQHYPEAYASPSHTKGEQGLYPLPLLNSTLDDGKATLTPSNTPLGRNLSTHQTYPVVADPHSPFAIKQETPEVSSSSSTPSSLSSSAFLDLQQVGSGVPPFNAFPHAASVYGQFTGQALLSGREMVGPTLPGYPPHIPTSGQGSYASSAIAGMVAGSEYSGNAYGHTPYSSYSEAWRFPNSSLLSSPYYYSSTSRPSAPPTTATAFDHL
compound,measurement,setting,value
O=C(NCCC1=CCCCC1)c1ccc2c(c1)N(Cc1ccccc1)C(=O)CS2,EC50,[1],2.88 µM (active)
same,EC50,[2],> 30 µM (not active)
same,IC50,[3],5.5 µM (not active)
N#CCc1ccc(NC(=O)Nc2cccc3ccccc23)cc1,EC50,[4],> 195 µM (not active)
C[C@H]1CN([C@@H](C)CO)C(=O)c2cccc(NC(=O)Nc3ccc(F)cc3)c2O[C@H]1CN(C)C(=O)Nc1ccc(C(F)(F)F)cc1,AC50,[5],13.1 µM (active)
Cc1ccnn2c(-c3ccccc3)c3c(=O)n(C)c(=O)n(C)c3c12,EC50,[6],> 150 µM (not active)
same,EC50,[7],> 150 µM (not active)
same,EC50,[8],> 150 µM (not active)
Cc1ccc(NC(=O)CSc2nc(N)cc(O)n2)cc1S(=O)(=O)N1CCCCCC1,IC50,[9],> 100 µM (inactive)
CS(=O)(=O)N(CC(=O)O)c1ccc(C23CC4CC(CC(C4)C2)C3)cc1,EC50,[4],> 195 µM (not active)
Cc1c(C(=O)N(C)c2ccc(Cl)cc2)cnn1-c1ccccc1,IC50,[9],> 100 µM (inactive)
CCOC(=O)N1CCN(c2ncnc3c2cnn3-c2ccc(OC)cc2)CC1,IC50,[9],> 100 µM (inactive)
Clc1ccc(C#Cc2cccnc2)cc1,EC50,[10],1.73 µM (active)
same,EC50,[11],24.1 µM (active)
same,EC50,[12],17.4 µM (active)
same,IC50,[9],12.6 µM (active)
OC[C@@H]1CC[C@@H]2O[C@H](CCc3ccc(-c4ccc(F)cc4)cc3)[C@H](n3cc(C4CC4)nn3)C[C@@H]2O1,AC50,[13],7.67 µM (active)
Cc1ccc(NC(=O)c2ccc(F)cc2F)cc1,IC50,[9],79 µM (inactive)
C[C@@H]1CN([C@@H](C)CO)C(=O)c2c(c3ccccc3n2C)-c2ccccc2CO[C@H]1CN(C)C(=O)Nc1ccc2c(c1)OCO2,AC50,[5],5.68 µM (active)
COc1cccc(/C=C/C(=O)NCc2ccc3c(c2)OCO3)c1,EC50,[4],> 195 µM (not active)
Oc1ccc(C[C@H]2CN([C@@H](Cc3ccc(O)cc3)CN3CCC[C@@H]3CN3C(=S)NC[C@@H]3Cc3ccccc3)C(=S)N2CC2CCCCCC2)cc1,AC50,[5],9.27 µM (active)
COCC#Cc1ccc(CC[C@H]2O[C@H]3CC[C@@H](CO)O[C@H]3C[C@@H]2n2cc(C3CC3)nn2)cc1,AC50,[13],5.82 µM (active)
Cc1cccc(C#Cc2ccccc2)n1,IC50,[9],> 100 µM (inactive)
CC(C)(C)C1CC=C2C(C#N)=C(N)C(C#N)(C#N)C(c3cccs3)C2C1 (stereo not given),EC50,[6],14.9 µM (active)
same,EC50,[7],25.7 µM (active)
same,EC50,[8],> 150 µM (not active)
CC(C)(C)NC1=NN=C(c2ccc(Cl)cc2)CS1,IC50,[9],13.9 µM (active)
CN1C(=O)/C(=C\c2ccccc2F)Sc2ccc(C(=O)NC3CCN(Cc4ccccc4)CC3)cc21,EC50,[6],7.12 µM (active)
same,EC50,[7],> 150 µM (not active)
same,EC50,[1],0.243 µM (active)
same,EC50,[2],> 60 µM (not active)
same,EC50,[8],41.8 µM (active)
COc1cc(C(=O)NS(=O)(=O)c2ccccc2C)ccc1Cc1cn(C)c2ccc(NC(=O)OC3CCCC3)cc12 [ZAFIRLUKAST],EC50,[6],0.936 µM (active)
same,EC50,[7],> 50 µM (not active)
same,EC50,[8],> 50 µM (not active)

# Source: ChEMBL document CHEMBL1201862, “PubChem BioAssay data set” (2004)
